From US20240425523A1, “Compounds for the Degradation of EGFR Kinase” (Beigene Switzerland GMBH, priority 2023, published 2024)

Tests used:
[1] = biological target: T1, EGFR-L858R/C797S (H1975-clone #8 cells) (Homo sapiens, UniProt P00533, C797S/L858R); assay: Cell degradation of EGFR, HTRF assay, H1975-clone#8 (L858R/C797S) cells; type: cell-based; conditions: 16 h treatment; for DC50: EGFR degradation; for Dmax: maximum percentage of degradation
T1 construct: expressed in transfected cells; host or cells: H1975 (endogenous EGFR knocked out, clone #8)
Procedure: The EGFR over-expressed cells then underwent knockout, in which the EGFR targeting sgRNA was designed to only target the endogenous EGFR copies and preserve the exogenous EGFR copies. Followed by the knockout, the edited H1975 cells were seeded in 96 well plates at the concentration of […], cultured for about 2 weeks to allow single clones formation. The formed clones were screened by DNA sequencing and whole exon sequencing analysis for the desired edition.
(§1) H1975-#8 and BaF3-L858R cells are treated with compounds diluted in 0.1% DMSO cell culture medium on day 2, incubate for 16 h, 37° C., 5% CO2. the final concentration of compounds in all assay is start with 10 uM, 5-fold dilution, total 8 doses were included.
(§2) After 16 h treatment, for H1975-#8 cells, add 100 ul HTRF 1× lysis buffer to each well; for BaF3-L858R cells, add 20 μl 4× lysis buffer to each well; seal the plate and incubate 1 hour at room temperature on a plate shaker; Once the cells are lysed, 16 μL of cell lysate are transferred to a PE 384-well HTRF detection plate; 4 μL of pre-mixed HTRF antibodies are added to each well; Cover the plate with a plate sealer, spin 1000 rpm for 1 min, Incubate overnight at room temperature; Read on BMG PheraStar with HTRF protocol (337 nm-665 nm-620 nm).
(§3) High control=Cell group with added DMSO and without compound, indicating microplate readings without EGFR degradation;
(§4) Dmax is the maximum percentage of inhibition (degradation).
(§5) The IC50 (DC50) value of a compound can be obtained by fitting the following equation
(§6) Y=Bottom+(TOP−Bottom)/(1+((IC50/X)^hillslope))
(§7) Wherein, X and Y are known values, and IC50, Hillslope, Top and Bottom are the parameters obtained by fitting with software. […] The experimental data were fitted by calculating and analyzing with Dotmatics data analysis software.

[2] = biological target: T2, EGFR L858R (BaF3-L858R cells) (Homo sapiens, UniProt P00533, L858R); assay: Cell degradation of EGFR, HTRF assay, BaF3-L858R cells; type: cell-based; conditions: 16 h treatment; for DC50: EGFR degradation; for Dmax: maximum percentage of degradation
T2 construct: host or cells: BaF3
Procedure: BaF3-L858R (abbv. L858R) cell were purchased from Kangyuan Bochuang Biotechnology (Beijing) Co., Ltd.
as §1, §2, §3, §4, §5, §6, §7

T1 sequence (P00533 25-1210 C797S/L858R): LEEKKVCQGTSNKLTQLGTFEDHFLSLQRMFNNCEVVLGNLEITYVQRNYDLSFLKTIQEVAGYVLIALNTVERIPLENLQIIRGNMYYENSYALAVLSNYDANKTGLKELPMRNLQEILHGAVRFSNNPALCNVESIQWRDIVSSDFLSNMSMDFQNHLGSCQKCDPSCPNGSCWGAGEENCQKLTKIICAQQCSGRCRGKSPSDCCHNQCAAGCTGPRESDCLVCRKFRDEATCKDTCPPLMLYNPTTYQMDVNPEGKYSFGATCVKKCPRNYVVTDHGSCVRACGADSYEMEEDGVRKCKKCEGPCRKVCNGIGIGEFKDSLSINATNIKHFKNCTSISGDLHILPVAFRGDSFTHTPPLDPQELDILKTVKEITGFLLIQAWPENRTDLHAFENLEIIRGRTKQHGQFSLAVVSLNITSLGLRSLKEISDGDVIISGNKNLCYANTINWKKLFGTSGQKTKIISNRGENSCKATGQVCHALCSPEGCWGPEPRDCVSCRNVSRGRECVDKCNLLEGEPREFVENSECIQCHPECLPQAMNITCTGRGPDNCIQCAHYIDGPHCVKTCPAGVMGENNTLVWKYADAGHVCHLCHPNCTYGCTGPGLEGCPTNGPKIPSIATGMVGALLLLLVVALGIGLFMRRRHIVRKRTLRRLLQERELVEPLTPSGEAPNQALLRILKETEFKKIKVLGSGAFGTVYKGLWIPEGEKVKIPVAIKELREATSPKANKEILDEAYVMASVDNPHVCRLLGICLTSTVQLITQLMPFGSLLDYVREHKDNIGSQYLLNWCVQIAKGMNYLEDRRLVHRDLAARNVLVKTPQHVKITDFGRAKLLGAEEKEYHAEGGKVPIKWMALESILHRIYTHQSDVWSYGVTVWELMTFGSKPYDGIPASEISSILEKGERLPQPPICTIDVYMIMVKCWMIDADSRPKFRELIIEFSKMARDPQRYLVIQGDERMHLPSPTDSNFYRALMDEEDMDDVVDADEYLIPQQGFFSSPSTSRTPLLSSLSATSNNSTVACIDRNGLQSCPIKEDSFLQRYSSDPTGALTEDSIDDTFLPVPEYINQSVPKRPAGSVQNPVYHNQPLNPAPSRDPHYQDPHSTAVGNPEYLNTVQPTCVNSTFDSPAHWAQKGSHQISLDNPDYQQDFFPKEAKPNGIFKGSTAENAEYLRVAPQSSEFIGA
T2 sequence (P00533 25-1210 L858R): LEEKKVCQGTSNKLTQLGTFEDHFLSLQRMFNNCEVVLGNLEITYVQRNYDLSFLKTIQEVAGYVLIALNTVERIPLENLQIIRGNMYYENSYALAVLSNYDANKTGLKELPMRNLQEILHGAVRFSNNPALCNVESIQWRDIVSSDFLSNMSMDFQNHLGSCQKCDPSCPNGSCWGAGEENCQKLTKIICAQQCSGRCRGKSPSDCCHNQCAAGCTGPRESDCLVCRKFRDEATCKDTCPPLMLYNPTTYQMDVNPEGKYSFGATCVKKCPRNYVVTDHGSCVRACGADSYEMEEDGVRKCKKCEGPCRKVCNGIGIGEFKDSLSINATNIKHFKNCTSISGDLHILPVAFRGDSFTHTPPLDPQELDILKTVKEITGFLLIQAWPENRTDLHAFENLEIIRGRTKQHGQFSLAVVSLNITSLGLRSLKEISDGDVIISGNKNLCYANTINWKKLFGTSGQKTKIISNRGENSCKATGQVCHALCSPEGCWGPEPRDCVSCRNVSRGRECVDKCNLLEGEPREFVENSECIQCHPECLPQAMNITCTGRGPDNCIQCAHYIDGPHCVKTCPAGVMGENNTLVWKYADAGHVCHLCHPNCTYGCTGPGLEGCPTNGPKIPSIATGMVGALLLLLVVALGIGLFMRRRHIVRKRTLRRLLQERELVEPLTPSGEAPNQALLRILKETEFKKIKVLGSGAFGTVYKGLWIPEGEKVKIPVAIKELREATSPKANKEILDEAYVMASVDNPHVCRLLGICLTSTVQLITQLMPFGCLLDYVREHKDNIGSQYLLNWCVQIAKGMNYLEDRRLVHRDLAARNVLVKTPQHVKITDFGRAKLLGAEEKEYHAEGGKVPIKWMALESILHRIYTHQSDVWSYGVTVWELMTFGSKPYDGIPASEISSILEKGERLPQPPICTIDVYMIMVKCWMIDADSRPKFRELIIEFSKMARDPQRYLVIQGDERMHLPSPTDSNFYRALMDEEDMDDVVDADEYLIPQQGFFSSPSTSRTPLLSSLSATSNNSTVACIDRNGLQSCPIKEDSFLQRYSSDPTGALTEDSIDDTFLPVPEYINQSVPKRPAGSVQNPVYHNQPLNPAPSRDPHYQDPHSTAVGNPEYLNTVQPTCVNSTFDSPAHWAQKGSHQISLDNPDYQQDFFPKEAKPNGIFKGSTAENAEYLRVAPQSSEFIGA

Row | SMILES | DC50 [1] [nM] | Dmax [1] [%] | DC50 [2] [nM] | Dmax [2] [%]
1 | Cc1cc2cc(n1)-c1cnn(C)c1OC[C@@H]1CC[C@@H](C1)CN1/C(=N/C2=O)Nc2ccc(N3CCN(C4CCN(c5ccc(C6CCC(=O)NC6=O)nc5C)CC4)CC3)cc21 (stereo partly drawn) [Example 3, 3-(5-(4-(4-((7^1S,7^3R,E)-1^1,2^6-dimethyl-3-oxo-5^2,5^3-dihydro-1^1H,5^1H-9-oxa-4-aza-5(2,1)-benzo[d]imidazola-2(2,4)-pyridina-1(4,5)-pyrazola-7(1,3)-cyclopentanacyclononaphane-5^6-yl)piperazin-1-yl)piperidin-1-yl)-6-methylpyridin-2-yl)piperidine-2,6-dione] | 16.4 | 44 | 20.1 | 72.7
2 | CCc1nc(C2CCC(=O)NC2=O)ccc1N1CCC(N2CCN(c3ccc4c(c3)N3C[C@@H]5CC[C@H](COc6c(cnn6C)-c6cc(cc(C)n6)C(=O)/N=C/3N4)C5)CC2)CC1 (stereo partly drawn) [Example 4, 3-(5-(4-(4-((7^1R,7^3S,E)-1^1,2^6-dimethyl-3-oxo-5^2,5^3-dihydro-1^1H,5^1H-9-oxa-4-aza-5(2,1)-benzo[d]imidazola-2(2,4)-pyridina-1(4,5)-pyrazola-7(1,3)-cyclopentanacyclononaphane-5^6-yl)piperazin-1-yl)piperidin-1-yl)-6-ethylpyridin-2-yl)piperidine-2,6-dione] | 2.34 | 75.4 | 1.23 | 87.6
3 | Cc1cc2cc(n1)-c1cnn(C)c1OC[C@H]1CC[C@H](C1)CN1/C(=N/C2=O)Nc2ccc(N3CCN(CC4CN(c5c(C)cc(C6CCC(=O)NC6=O)nc5C)C4)CC3)cc21 (stereo partly drawn) [Example 8, 3-(5-(3-((4-((7^1R,7^3S,E)-1^1,2^6-dimethyl-3-oxo-5^2,5^3-dihydro-1^1H,5^1H-9-oxa-4-aza-5(2,1)-benzo[d]imidazola-2(2,4)-pyridina-1(4,5)-pyrazola-7(1,3)-cyclopentanacyclononaphane-5^6-yl)piperazin-1-yl)methyl)azetidin-1-yl)-4,6-dimethylpyridin-2-yl)piperidine-2,6-dione] | 3.18 | 74.2 | 3.2 | 64
4 | COC[C@@H]1CN(c2ccc3c(c2)N2C[C@@H]4CC[C@H](COc5c(cnn5C)-c5cc(cc(C)n5)C(=O)/N=C/2N3)C4)CCN1C1CCN(c2cc(F)c([C@H]3CCC(=O)NC3=O)c(F)c2)CC1 [Example 9, (R)-3-(4-(4-((S)-4-((7^1R,7^3S,E)-1^1,2^6-dimethyl-3-oxo-5^2,5^3-dihydro-1^1H,5^1H-9-oxa-4-aza-5(2,1)-benzo[d]imidazola-2(2,4)-pyridina-1(4,5)-pyrazola-7(1,3)-cyclopentanacyclononaphane-5^6-yl)-2-(methoxymethyl)piperazin-1-yl)piperidin-1-yl)-2,6-difluorophenyl)piperidine-2,6-dione] | 4.28 | 71.7 | 6.11 | 86.6
5 | Cc1cc2cc(n1)-c1cnn(C)c1OC[C@H]1CC[C@H](C1)CN1/C(=N/C2=O)Nc2ccc(N3CCN(C4CCN(c5cc(F)c([C@H]6CCC(=O)NC6=O)c(F)c5)CC4)CC34COC4)cc21 [Example 10, (R)-3-(4-(4-(5-((7^1R,7^3S,E)-1^1,2^6-dimethyl-3-oxo-5^2,5^3-dihydro-1^1H,5^1H-9-oxa-4-aza-5(2,1)-benzo[d]imidazola-2(2,4)-pyridina-1(4,5)-pyrazola-7(1,3)-cyclopentanacyclononaphane-5^6-yl)-2-oxa-5,8-diazaspiro[3.5]nonan-8-yl)piperidin-1-yl)-2,6-difluorophenyl)piperidine-2,6-dione] | 3.15 | 66.8 | 4.07 | 73
6 | Cc1cc2cc(n1)-c1cnn(C)c1OC[C@H]1CC[C@H](C1)CN1/C(=N/C2=O)Nc2ccc(N3CCN([C@@H]4CCN(c5cccc6c5C(C)(C)C(=O)N6C5CCC(=O)NC5=O)C[C@@H]4F)CC3)cc21 (stereo partly drawn) [Example 11, 3-(4-((3S,4R)-4-(4-((7^1R,7^3S,E)-1^1,2^6-dimethyl-3-oxo-5^2,5^3-dihydro-1^1H,5^1H-9-oxa-4-aza-5(2,1)-benzo[d]imidazola-2(2,4)-pyridina-1(4,5)-pyrazola-7(1,3)-cyclopentanacyclononaphane-5^6-yl)piperazin-1-yl)-3-fluoropiperidin-1-yl)-3,3-dimethyl-2-oxoindolin-1-yl)piperidine-2,6-dione] | 3.75 | 61.5 | 0.834 | 84.6

Stronger by DC50 [1], values ahead:

Row | DC50 [1] [nM] | Dmax [1] [%] | DC50 [2] [nM] | Dmax [2] [%] | SMILES
7 | 2.03 | 45.4 | 0.631 | 99.4 | Cc1cc2cc(n1)-c1cnn(C)c1OC[C@H]1CC[C@H](C1)CN1/C(=N/C2=O)Nc2ccc(N3CCN(CCc4c(C)cc(C5CCC(=O)NC5=O)nc4C)CC3)cc21 (stereo partly drawn) [Example 7, 3-(5-(2-(4-((7^1R,7^3S,E)-1^1,2^6-dimethyl-3-oxo-5^2,5^3-dihydro-1^1H,5^1H-9-oxa-4-aza-5(2,1)-benzo[d]imidazola-2(2,4)-pyridina-1(4,5)-pyrazola-7(1,3)-cyclopentanacyclononaphane-5^6-yl)piperazin-1-yl)ethyl)-4,6-dimethylpyridin-2-yl)piperidine-2,6-dione]
8 | 1.41 | 79.2 | 3.25 | 89.7 | Cc1cc2cc(n1)-c1cnn(C)c1OC[C@H]1CC[C@H](C1)CN1/C(=N/C2=O)Nc2ccc(N3CCN(C4CCN(c5cc(F)c([C@H]6CCC(=O)NC6=O)c(F)c5)CC4)CC3)cc21 [Example 1, (R)-3-(4-(4-(4-((7^1R,7^3S,E)-1^1,2^6-dimethyl-3-oxo-5^2,5^3-dihydro-1^1H,5^1H-9-oxa-4-aza-5(2,1)-benzo[d]imidazola-2(2,4)-pyridina-1(4,5)-pyrazola-7(1,3)-cyclopentanacyclononaphane-5^6-yl)piperazin-1-yl)piperidin-1-yl)-2,6-difluorophenyl)piperidine-2,6-dione]
9 | 1.38 | 72.6 | 0.879 | 87.2 | Cc1cc2cc(n1)-c1cnn(C)c1OC[C@H]1CC[C@H](C1)CN1/C(=N/C2=O)Nc2ccc(N3CCN(C4CCN(c5ccc(C6CCC(=O)NC6=O)nc5C)CC4)CC3)cc21 (stereo partly drawn) [Example 2, 3-(5-(4-(4-((7^1R,7^3S,E)-1^1,2^6-dimethyl-3-oxo-5^2,5^3-dihydro-1^1H,5^1H-9-oxa-4-aza-5(2,1)-benzo[d]imidazola-2(2,4)-pyridina-1(4,5)-pyrazola-7(1,3)-cyclopentanacyclononaphane-5^6-yl)piperazin-1-yl)piperidin-1-yl)-6-methylpyridin-2-yl)piperidine-2,6-dione]
10 | 1.2 | 86.6 | 3.1 | 101 | Cc1cc2cc(n1)-c1cnn(C)c1OC[C@H]1CC[C@H](C1)CN1/C(=N/C2=O)Nc2ccc(N3CCN(C4CCN(c5cc(F)c(C6CCC(=O)NC6=O)nc5C)CC4)CC3)cc21 (stereo partly drawn) [Example 6, 3-(5-(4-(4-((7^1R,7^3S,E)-1^1,2^6-dimethyl-3-oxo-5^2,5^3-dihydro-1^1H,5^1H-9-oxa-4-aza-5(2,1)-benzo[d]imidazola-2(2,4)-pyridina-1(4,5)-pyrazola-7(1,3)-cyclopentanacyclononaphane-5^6-yl)piperazin-1-yl)piperidin-1-yl)-3-fluoro-6-methylpyridin-2-yl)piperidine-2,6-dione]
11 | 0.856 | 75.7 | 1.01 | 84.4 | Cc1cc2cc(n1)-c1cnn(C)c1OC[C@H]1CC[C@H](C1)CN1/C(=N/C2=O)Nc2ccc(N3CCN(C4CCN(c5cccc6c5C(C)(C)C(=O)N6C5CCC(=O)NC5=O)CC4)CC3)cc21 (stereo partly drawn) [Example 5, 3-(4-(4-(4-((7^1R,7^3S,E)-1^1,2^6-dimethyl-3-oxo-5^2,5^3-dihydro-1^1H,5^1H-9-oxa-4-aza-5(2,1)-benzo[d]imidazola-2(2,4)-pyridina-1(4,5)-pyrazola-7(1,3)-cyclopentanacyclononaphane-5^6-yl)piperazin-1-yl)piperidin-1-yl)-3,3-dimethyl-2-oxoindolin-1-yl)piperidine-2,6-dione]
12 | 0.774 | 88.4 | 0.493 | 90 | Cc1cc2cc(n1)-c1cnn(C)c1OC[C@H]1CC[C@H](C1)CN1/C(=N/C2=O)Nc2ccc(N3CCN([C@@H]4CCN(c5ccc(C6CCC(=O)NC6=O)nc5C)C[C@@H]4F)CC3)cc21 (stereo partly drawn) [Example 12, 3-(5-((3S,4R)-4-(4-((7^1R,7^3S,E)-1^1,2^6-dimethyl-3-oxo-5^2,5^3-dihydro-1^1H,5^1H-9-oxa-4-aza-5(2,1)-benzo[d]imidazola-2(2,4)-pyridina-1(4,5)-pyrazola-7(1,3)-cyclopentanacyclononaphane-5^6-yl)piperazin-1-yl)-3-fluoropiperidin-1-yl)-6-methylpyridin-2-yl)piperidine-2,6-dione]
